According to ChEMBL document CHEMBL3112504, “Design, structural and biological characterization of a VEGF inhibitor β-hairpin-constrained peptide” (2014):
Activity calls are given as the source filed them. The calls are words filed in the database; no cut-off is given here. Peptide text beside a SMILES is read from it.

Tests used:
[1] = system: HUVEC; experiment: Induction of proapoptosis in VEGF-treated HUVEC assessed as increase in caspase 3 activity after 8 hrs by fluorimetric assay; assay type: functional, cell-based; conditions: Homo sapiens
[2] = system: HUVEC; experiment: Inhibition of VEGFR in HUVEC assessed as reduction in VEGF-induced ERK1/2 phosphorylation at 25 to 100 ng/ml after 15 mins by Western blotting analysis; assay type: cell-based; conditions: Homo sapiens
[3] = system: HUVEC; experiment: Induction of proapoptosis in HUVEC assessed as increase in caspase 3 activity at 25 to 100 ng/ml after 8 hrs by fluorimetric assay; assay type: functional, cell-based; conditions: Homo sapiens
[4] = system: HUVEC; experiment: Induction of proapoptosis in VEGF-treated HUVEC assessed as increase in caspase 3 activity at 25 to 100 ng/ml after 8 hrs by fluorimetric assay; assay type: functional, cell-based; conditions: Homo sapiens
[5] = system: HUVEC; experiment: Inhibition of VEGF-induced HUVEC proliferation at 50 to 100 […] after 48 hrs by CyQuant cell proliferation assay; assay type: functional, Homo sapiens
[6] = system: HUVEC; experiment: Inhibition of VEGFR in HUVEC assessed as reduction in Akt phosphorylation at 25 to 100 ng/ml after 15 mins by Western blotting analysis; assay type: cell-based; conditions: Homo sapiens
[7] = system: HUVEC; experiment: Inhibition of VEGFR in HUVEC assessed as reduction in VEGF-induced Akt phosphorylation at 25 to 100 ng/ml after 15 mins by Western blotting analysis; assay type: cell-based; conditions: Homo sapiens
[8] = system: HUVEC; experiment: Inhibition of VEGFR in HUVEC assessed as reduction in ERK1/2 phosphorylation at 25 to 100 ng/ml after 15 mins by Western blotting analysis; assay type: cell-based; conditions: Homo sapiens
[9] = system: HUVEC; experiment: Induction of proapoptosis in VEGF-treated HUVEC assessed as increase in caspase 3 activity at 100 ng/ml after 8 hrs by fluorimetric assay; assay type: functional, cell-based; conditions: Homo sapiens
[10] = system: HUVEC; experiment: Inhibition of VEGFR in HUVEC assessed as reduction in VEGF-induced ERK1/2 phosphorylation at 100 ng/ml after 15 mins by Western blotting analysis; assay type: cell-based; conditions: Homo sapiens
[11] = system: HUVEC; experiment: Inhibition of VEGFR in HUVEC assessed as reduction in VEGF-induced Akt phosphorylation at 100 ng/ml after 15 mins by Western blotting analysis; assay type: cell-based; conditions: Homo sapiens

Compound | Activity [1] | inhibition [2] | Activity [3] | Activity [4] | inhibition (INH) [5] | inhibition [6] | inhibition [7] | inhibition [8] | Activity [9] | inhibition [10] | inhibition ([5]; Homo sapiens) | inhibition [11]
CC[C@H](C)[C@H](NC(=O)[C@H](Cc1c[nH]c2ccccc12)NC(=O)[C@H](CC(C)C)NC(=O)[C@H](CS)NC(=O)[C@H](CCC(N)=O)NC(=O)[C@@H](N)CCCCN)C(=O)N[C@@H](CCCNC(=N)N)C(=O)N[C@@H](CO)C(=O)NCC(=O)N[C@@H](CC(=O)O)C(=O)N[C@@H](CCCNC(=N)N)C(=O)N1CCC[C@H]1C(=O)N[C@@H](Cc1c[nH]c2ccccc12)C(=O)N[C@@H](Cc1ccc(O)cc1)C(=O)N[C@@H](CS)C(=O)N[C@H](C(=O)N[C@@H](CO)C(=O)O)[C@@H](C)O (H-KQCLWIRSGDRPWYCTS-OH) | Dose-dependent effect | Active | inactive | Active | >95% | inactive | Active | inactive |  |  |  | 
H-KPDRWSQWRSTYSLSIG-OH |  |  |  |  |  |  |  |  | inactive | inactive | inactive | inactive
